Measurements reported in patent publication US20260174860A1, “HYBRID COMPOUNDS OF SCLAREOL AND DOXORUBICIN, THEIR SYNTHESIS AND APPLICATION” (INSTITUTE FOR BIOLOGICAL RESEARCH "SINISA STANKOVIC" - …, priority 2023, published 2026).
Like-named read-outs stand apart in the source and are kept apart here.

Key:
[1] = system: U87, U87-TxR, U251, NCI-H460, NCI-H460/R, DLD1, DLD1-TxR and MRC-5; test: MTT cytotoxicity across the cell line panel (FIG. 1); assay type: cell-based; details: Homo sapiens
Method: The MTT test was used to evaluate the effect of the compounds on cell viability. The test relies on the reduction of tetrazolium salt (MTT) to formazan, which is catalyzed by the mitochondrial enzyme succinate dehydrogenase. The activity of succinate dehydrogenase, which is indicative of mitochondrial respiration, is taken as an indirect measure of the metabolic activity of the cell, and thus its viability. The MTT-formazan produced is a purple-colored product, whose absorbance is measured at a wavelength of 570 nm. • a) To determine the inhibition of cell growth by SC, different cell lines were exposed to increasing concentrations of SC (5, 10, 25, 50, and 100 μM). […] The absorbance of the samples was measured at 570 nm using a Multiskan Sky Microplate spectrophotometer (ThermoFisher Scientific, USA). The results were analyzed using GraphPad Prism 8.0.2. software, and the IC50 values were determined by non-linear regression. • b) To test the interaction between SC and DOX in terms of cytotoxicity in different cell lines, cells were seeded in 96-well microtiter plates at a density of 2,000 cells per well for NCI-H460, NCI-H460/R, DLD1 and DLD1-TxR, and 4,000 cells per well for MRC-5, U87, U87-TxR, and U251 in 100 μl of the appropriate medium. […]

[2] = system: Balb/c mice; test: Comparative toxicology study of DOX and CON1; assay type: in vivo; details: i.p.; for creatine phosphokinase (CPK): after 72 h, only DOX significant; for other blood parameters (RBC, HGB, HCT, MCV, MCH, MCHC, RDW, PLT, MPV): data not shown; for percentage of lymphocytes (% LYM, LYM, WBC) / percentage of monocytes and granulocytes (% MON and % GRA): over time
Method: Male Balb/c mice, aged 7-11 weeks, were sourced from the EL-42BIO/Br-01 (Laboratory of Pharmacology, School of Medicine, University of Thessaly, Larissa, Greece). The mice were kept in an environment with a 12-hour light/dark cycle, humidity of around 50-60%, and a temperature of 20-22° C. They had free access to food and water. The handling and experimentation of the mice were conducted in compliance with the Greek laws (PD 56/2013 and Circular 2215/117550/2013) and the European Union guidelines ([…]). The protocol was approved by the IACUC and Greek authorities (License no. 58376/13.02.2023). The mice were divided into three groups with two mice per group, amounting to a total of 18 mice. They were treated as follows: Group 1 received vehicle (10% DMSO and 5% Tween80); Group 2-DOX received 7 mg/kg of body weight via intraperitoneal injection (i.p.); Group 3 received CON1 at 14 mg/kg of body weight (to achieve a DOX concentration of 7 mg/kg of body weight), i.p. The study took place over three time points: 24 h, 48 h and 72 h. At the end of each period, blood samples were collected from the mice's tails and cheeks, and the mice were euthanized by CO2 inhalation followed by cervical dislocation. Fresh blood samples were analyzed using the scil Vet ABC™Hematology Analyzer (scil animal care company GmbH, Germany), while sera from all samples were extracted and analyzed using the Skyla VB1 Veterinary Clinical Chemistry Analyzer (Skyla Corporation, Taiwan) with the Critical Care Panel (900-330) (Skyla Corporation, Taiwan).

[3] = system: breast cancer cell lines; details: 0.1 μM DOX alone or combined with 50 μM SC; cited from earlier work
[4] = system: glioblastoma cell lines U87, U87-TxR and U251; test: DOX accumulation test, flow cytometry; assay type: cell-based, human; details: 20 μM and 50 μM SC with 20 μM DOX, 60 min
Method: (§1) • a) First, DOX accumulation test was performed on three glioblastoma cell lines, U87, U87-TxR, and U251. Cells were trypsinized and counted, and then 100,000 cells per sample were collected in a tube for flow cytometry and resuspended in 500 μL of culture medium. Cells were treated with 20 μM and 50 µM SC. Immediately after SC treatment, cells were treated with 20 μM DOX, and samples were incubated at 37° C. in a humid atmosphere with 5% CO2 for 60 min. After the accumulation period, the samples were centrifuged, washed twice with cold Phosphate Buffered Saline (PBS), and finally resuspended in 1 mL of PBS. The fluorescence of the samples was read on the FL2 (red channel) of a cytofluorimeter (Partec, Munster, Germany), and the results were analyzed with the software package Summit 4.3. • b) Secondly, DOX and rhodamine 123 accumulation test was performed on non-small cell lung carcinoma cell lines NCI-H460 and NCI-H460/R. Cells were trypsinized and counted, and then 100,000 cells per sample were collected in a tube for flow cytometry and resuspended in 500 μl of culture medium. Cells were treated with 50 μM SC. Immediately after treatment, 5 μM Rho123 was added to one group of samples and the other 20 μM DOX. […] The samples were analyzed using a flow cytometer, reading for rhodamine 123 on FL1 (green channel) and DOX on FL2 (red channel). […]

[5] = system: P-glycoprotein-deficient NCI-H460 cells; test: DOX and rhodamine 123 accumulation test, flow cytometry; assay type: cell-based, human; details: 50 μM SC
Method: as §1

[6] = system: spheroids of ovarian cancer cell lines that are resistant to DOX; details: effect of SC; cited from earlier work
[7] = DOX 7 mg/kg, CON1 14 mg/kg, 24, 48, 72 h
[8] = CON1 14 mg/kg, at 48 h, disappeared after 72 h

Row | Molecule | IC50 ([1]; micromolar range in resistant lines, nanomolar in sensitive ones, read-out: DOX active concentration in resistant cancer cell lines) | alanine aminotransferase (ALT) [2, 7] | alkaline phosphatase (ALP) [2, 7] | creatine phosphokinase (CPK) ([2]; DOX 7 mg/kg, CON1 14 mg/kg) | other blood parameters (RBC, HGB, HCT, MCV, MCH, MCHC, RDW, PLT, MPV) ([2]; DOX 7 mg/kg, CON1 14 mg/kg) | percentage of lymphocytes (% LYM, LYM, WBC) ([2]; DOX 7 mg/kg, CON1 14 mg/kg) | percentage of monocytes and granulocytes (% MON and % GRA) ([2]; DOX 7 mg/kg, CON1 14 mg/kg) | levels of K ([2]; DOX 7 mg/kg, 24, 48, 72 h) | rate of cell growth [3] | IC50 ([1]; range depending on the cell type, FIG. 1, MTT 72 h, read-out: IC50 value of 50% inhibition of cell growth) | accumulation of DOX [4] | DOX or rhodamine 123 accumulation [5] | accumulation of DOX in spheroids [6] | increase of the cytotoxicity of DOX [6] | percentage of eosinophils (% EOS) ([2]; CON1 14 mg/kg) | Ca levels [2, 8] | Na levels [2, 8] | total bicarbonate (tCO2) ([2]; CON1 14 mg/kg, at 48 h, disappeared by 72 h)
1 | COc1cccc2c1C(=O)c1c(O)c3c(c(O)c1C2=O)C[C@@](O)(C(=O)CO)C[C@@H]3O[C@H]1C[C@H](N)[C@H](O)[C@H](C)O1 [DOX, doxorubicin] | < 5 µM | increase | significantly decrease | increased | None of the tested compounds, DOX or CON1, had any impact | decreased | increased | consistently increased | 76% | – | – | – | – | – | – | – | – | –
2 | C=C[C@](C)(O)CC[C@@H]1[C@@]2(C)CCCC(C)(C)[C@@H]2CC[C@@]1(C)O [SC, sclareol] | – | – | – | – | – | – | – | – | – | 20 to 70 µM | increase the accumulation of DOX | did not show any increase | did not enhance | 4.5 times | – | – | – | –
3 | N1-((25,3S,4S,6R)-3-hydroxy-2-methyl-6-(((1S,3S)-3,5,12-trihydroxy-3-(2-hydroxyacetyl)-10-methoxy-6,11-dioxo-1,2,3,4,6,11-hexahydrotetracen-1-yl)oxy)tetrahydro-2H-pyran-4-yl)-N4-(3-((4-((R,E)-3-hydroxy-5-((1R,2R,4aS,8aS)-2-hydroxy-2,5,5,8a-tetramethyldecahydronaphthalen-1-yl)-3-methylpent-1-en-1-yl)benzyl)amino)propyl) succinamide [CON1] | – | did not change | increase ALP levels after 48 h | increased | None of the tested compounds, DOX or CON1, had any impact | did not have any impact | did not have any impact | – | – | – | – | – | – | – | not significantly relevant | temporary increase | decrease | transiently increased
